Assay [1] deals with T1, human SGLT1 (Homo sapiens, UniProt P13866).
T1 construct: expressed in transfected cells
T1 sequence (P13866 1-664): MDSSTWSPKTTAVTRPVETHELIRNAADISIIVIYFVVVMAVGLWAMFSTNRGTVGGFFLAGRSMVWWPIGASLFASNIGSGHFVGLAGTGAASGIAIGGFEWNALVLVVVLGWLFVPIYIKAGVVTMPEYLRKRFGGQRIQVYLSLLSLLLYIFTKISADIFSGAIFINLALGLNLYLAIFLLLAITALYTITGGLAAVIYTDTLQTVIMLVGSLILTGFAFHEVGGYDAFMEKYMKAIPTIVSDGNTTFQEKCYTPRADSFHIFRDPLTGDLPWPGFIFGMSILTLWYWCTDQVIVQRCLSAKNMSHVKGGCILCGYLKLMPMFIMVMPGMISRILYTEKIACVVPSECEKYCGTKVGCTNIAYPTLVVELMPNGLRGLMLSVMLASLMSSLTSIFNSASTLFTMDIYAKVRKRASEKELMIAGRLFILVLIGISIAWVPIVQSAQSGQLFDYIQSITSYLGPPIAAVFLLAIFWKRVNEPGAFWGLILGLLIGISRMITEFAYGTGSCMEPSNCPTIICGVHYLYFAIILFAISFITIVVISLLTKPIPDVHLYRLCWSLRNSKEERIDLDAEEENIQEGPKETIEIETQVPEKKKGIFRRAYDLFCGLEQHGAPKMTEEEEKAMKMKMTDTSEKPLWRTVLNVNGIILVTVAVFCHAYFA
In words: Cell-based assay for sodium-dependent glucose transport (14C-AMG uptake), CHOK-SGLT1. The conditions noted are these: CHO-K1 cells stably expressing human SGLT1; for IC50: Na-dependent 14C-AMG uptake; for inhibition at 10 µM: 10 μM compound, read-out: CHOK-SGLT1 % Inh. @ 10 μM. On the procedure:
(§1) Cloning of the human SGLT1 and human SGLT2 cDNAs and construction of the mammalian expression vector: The human SGLT1 cDNA (Genbank M24847) was cloned from human small intestine. Human SGLT2 cDNA (Genbank M95549) was cloned from human kidney. Both full cDNAs were subcloned into pcDNA and sequenced to verify the integrity of the construct.
(§2) Generation of CHO-K1 cells stably expressing human SGLT1 or human SGLT2: Transfection of CHO-K1 cells was performed using DMRIE-C reagent (Life Technologies, Gaithersburg, Md.). Transfectants were then selected in the presence of the antibiotic G418 (Gibco-BRL, Grand Island, N.Y.) at 400 μg/ml. Individual clones were then characterized using the functional assay described below.
(§3) Cell-based assay for sodium-dependent glucose transport: Cell lines stably expressing human SGLT1 or SGLT2 were then used for functional analysis of Na+-dependent glucose uptake. Briefly, cells were plated at a density of 65,000 cells per well in a 96-well plate and allowed to grow for 48 hours. Cells were subsequently washed one time with Assay Buffer (50 mM HEPES pH […], 5 mM KCl, 1 mM MgCl2, 1 mM CaCl2 and 137 mM NaCl) and treated with compound in the absence or presence of NaCl for 15 minutes. Cells were then labeled with ^14C-α-methylglucopyranoside (AMG, Sigma, St. Louis, Mo.), a non-metabolizable glucose analog specific for sodium-dependent glucose transporters as previously described (Peng, H. and Lever J. E. Post-transcriptional regulation of Na^+/glucose cotransporter (SGLT1) gene expression in LLC-PK1 cells. J Biol Chem 1995; 270:20536-20542.). After 2 hours the labeled cells were washed three times with ice-cold PBS. After aspiration, cells were solubilized using Microscint 20 (Packard, Meriden, Conn.) and Na-dependent ^14C-AMG uptake was quantified by measuring radioactivity. Plates were counted in a TopCount (Packard, Meriden, Conn.). Results are reported as the % inhibition or IC50 value from a representative experiment. Variability for the functional assay was typically within 20%.

Assay [2] has as its target T2, human SGLT2 (Homo sapiens, UniProt P31639).
T2 construct: expressed in transfected cells
T2 sequence (P31639 1-672): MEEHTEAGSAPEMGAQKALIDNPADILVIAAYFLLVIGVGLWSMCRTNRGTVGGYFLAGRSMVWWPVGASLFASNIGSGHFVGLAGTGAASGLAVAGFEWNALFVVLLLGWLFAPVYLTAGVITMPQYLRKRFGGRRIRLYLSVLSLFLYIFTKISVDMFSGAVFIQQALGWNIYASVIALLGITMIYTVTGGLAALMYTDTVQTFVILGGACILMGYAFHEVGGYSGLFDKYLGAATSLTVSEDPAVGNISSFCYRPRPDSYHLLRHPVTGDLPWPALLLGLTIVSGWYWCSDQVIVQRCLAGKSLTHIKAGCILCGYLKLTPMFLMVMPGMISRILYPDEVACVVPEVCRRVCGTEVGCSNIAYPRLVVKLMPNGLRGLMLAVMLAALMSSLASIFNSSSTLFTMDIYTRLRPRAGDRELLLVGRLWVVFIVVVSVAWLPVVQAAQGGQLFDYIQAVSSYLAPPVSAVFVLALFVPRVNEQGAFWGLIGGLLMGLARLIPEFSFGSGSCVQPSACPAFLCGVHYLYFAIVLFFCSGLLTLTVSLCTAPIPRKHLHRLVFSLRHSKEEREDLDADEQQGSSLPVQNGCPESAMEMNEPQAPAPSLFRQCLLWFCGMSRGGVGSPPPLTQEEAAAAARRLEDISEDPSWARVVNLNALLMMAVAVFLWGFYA
In words: Cell-based assay for sodium-dependent glucose transport (14C-AMG uptake), CHOK-SGLT2. The conditions noted are these: CHO-K1 cells stably expressing human SGLT2; for IC50: Na-dependent 14C-AMG uptake. The procedure: as §1, §2, §3

Regarding `OC[C@H]1O[C@@H](Oc2cccc3[nH]cc(CCc4ccc5c(c4)CCO5)c23)[C@H](O)[C@@H](O)[C@@H]1O` [Example 1, 2-{3-[2-(2,3-Dihydro-benzofuran-5-yl)-ethyl]-1H-indol-4-yloxy} β-D-glucopyranoside], the results for the IC50 in assay [1] and in assay [2] were 148 nM and 20 nM, respectively.
Take `CC(=O)OC[C@H]1O[C@@H](Oc2cccc3[nH]cc(CCc4ccc5c(c4)CCO5)c23)[C@H](O)[C@@H](O)[C@@H]1O` [Example 2, 2-{3-[2-(2,3-Dihydro-benzofuran-5-yl)-ethyl]-1H-indol-4-yloxy}-6-O-acetyl β-D-glucopyranoside]: the results for the IC50 in assay [1] and in assay [2] were 1360 nM and 158 nM, respectively.
Turning to `Cn1cc(CCc2ccc3c(c2)CCO3)c2c(O[C@@H]3O[C@H](CO)[C@@H](O)[C@H](O)[C@H]3O)cccc21` [Example 3, 2-{3-[2-(2,3-Dihydro-benzofuran-5-yl)-ethyl]-1-methyl-1H-indol-4-yloxy} β-D-glucopyranoside], the IC50 in assay [1] stood at 195 nM; in assay [2], 62 nM.
Take `OC[C@H]1O[C@@H](Oc2cccc3[nH]cc(CCc4ccc5c(c4)OCO5)c23)[C@H](O)[C@@H](O)[C@@H]1O` [Example 4, 2-[3-(2-Benzo[1,3]dioxol-5-yl-ethyl)-1H-indol-4-yloxy] β-D-glucopyranoside]: the IC50 in assay [1] worked out at 823 nM; in assay [2] it was 98 nM.
The like results for `OC[C@H]1O[C@@H](Oc2cccc3[nH]cc(CCc4ccc5c(c4)OCCO5)c23)[C@H](O)[C@@H](O)[C@@H]1O` [Example 5, 2-{3-[2-(2,3-Dihydro-benzo[1,4]dioxin-6-yl)-ethyl]-1H-indol-4-yloxy}-β-D-glucopyranoside] were, in that order, 3380 nM and 146 nM.
As to `OC[C@H]1O[C@@H](Oc2cccc3[nH]cc(CCc4ccc5ccccc5c4)c23)[C@H](O)[C@@H](O)[C@@H]1O` [Example 6, 2-[3-(2-Naphthalen-2-yl-ethyl)-1H-indol-4-yloxy]-β-D-glucopyranoside], the IC50 in assay [2] was 149 nM.
For `COc1ccc(CCc2c[nH]c3cccc(O[C@@H]4O[C@H](CO)[C@@H](O)[C@H](O)[C@H]4O)c23)cc1` [Example 7, 2-{3-[2-(4-Methoxy-phenyl)-ethyl]-1H-indol-4-yloxy}-β-D-glucopyranoside], the IC50 in assay [1] is 560 nM; in assay [2], 142 nM.
As to `CCOc1ccc(CCc2c[nH]c3cccc(O[C@@H]4O[C@H](CO)[C@@H](O)[C@H](O)[C@H]4O)c23)cc1` [Example 8, 2-{3-[2-(4-Ethoxy-phenyl)-ethyl]-1H-indol-4-yloxy}-β-D-glucopyranoside], the figures for the IC50 in assay [1] and in assay [2] were 1340 nM and 183 nM, respectively.
On to `CCc1ccc(CCc2c[nH]c3cccc(O[C@@H]4O[C@H](CO)[C@@H](O)[C@H](O)[C@H]4O)c23)cc1` [Example 9, 2-{3-[2-(4-Ethyl-phenyl)-ethyl]-1H-indol-4-yloxy}-β-D-glucopyranoside], for which the inhibition at 10 µM in assay [1] was 46%. Further, the inhibition at 1 µM in assay [2] (1 μM compound, read-out: CHOK-SGLT2 % Inh. @ 1 μM) amounted to 50%.
For `COc1ccc(CCc2c[nH]c3cc(C)cc(O[C@@H]4O[C@H](CO)[C@@H](O)[C@H](O)[C@H]4O)c23)cc1` [Example 10, 2-{3-[2-(4-Methoxy-phenyl)-ethyl]-6-methyl-1H-indol-4-yloxy}-β-D-glucopyranoside], the IC50 in assay [1] is 2730 nM; in assay [2] it was 376 nM.
The like results for `CCc1ccc(Cc2c[nH]c3cccc(O[C@@H]4O[C@H](CO)[C@@H](O)[C@H](O)[C@H]4O)c23)cc1` [Example 11, 2-[3-(4-Ethyl-benzyl)-1H-indol-4-yloxy]-β-D-glucopyranoside] were, in that order, 1810 nM and 24 nM.
For the compound `CCc1ccc(Cc2c[nH]c3cccc(O[C@@H]4O[C@H](COC(=O)OC)[C@@H](O)[C@H](O)[C@H]4O)c23)cc1` [Example 12, 2-[3-(4-Ethyl-benzyl)-1H-indol-4-yloxy]-6-O-methoxycarbonyl-β-D-glucopyranoside], the IC50 in assay [2] came out at 660 nM.
In turn, `CCOC(=O)OC[C@H]1O[C@@H](Oc2cccc3[nH]cc(Cc4ccc(CC)cc4)c23)[C@H](O)[C@@H](O)[C@@H]1O` [Example 13, 2-[3-(4-Ethyl-benzyl)-1H-indol-4-yloxy]-6-O-ethoxycarbonyl-β-D-glucopyranoside] returned an IC50 in assay [2] of 650 nM.
On to `CCCCCC(=O)OC[C@H]1O[C@@H](Oc2cccc3[nH]cc(Cc4ccc(CC)cc4)c23)[C@H](O)[C@@H](O)[C@@H]1O` [Example 14, 2-[3-(4-Ethyl-benzyl)-1H-indol-4-yloxy]-6-O-hexanoyl-β-D-glucopyranoside], for which the inhibition at 10 µM in assay [1] turned out to be 71%. In assay [2], half-maximal inhibition (IC50) required 206 nM.
On to `Cc1ccc(Cc2c[nH]c3cccc(O[C@@H]4O[C@H](CO)[C@@H](O)[C@H](O)[C@H]4O)c23)cc1` [Example 15, 2-[3-(4-Methyl-benzyl)-1H-indol-4-yloxy]-β-D-glucopyranoside], for which the IC50 in assay [1] was found to be 3880 nM; in assay [2], 53 nM.
With `Cc1ccc(Cc2c[nH]c3cccc(O[C@@H]4O[C@H](CO)[C@@H](O)[C@H](O)[C@H]4O)c23)cc1F` [Example 16, 2-[3-(3-Fluoro-4-methyl-benzyl)-1H-indol-4-yloxy]-β-D-glucopyranoside], the inhibition at 3 µM in assay [1] (3 μM compound, read-out: CHOK-SGLT1 % Inh. @ 3 μM) came to 42%. Also, the IC50 in assay [2] amounted to 67 nM.
As to `CCCc1ccc(Cc2c[nH]c3cccc(O[C@@H]4O[C@H](CO)[C@@H](O)[C@H](O)[C@H]4O)c23)cc1` [Example 17, 2-[3-(4-propyl-benzyl)-1H-indol-4-yloxy]-β-D-glucopyranoside], the IC50 in assay [2] was 49 nM.
The same measure, in the same setting: to `OC[C@H]1O[C@@H](Oc2cccc3[nH]cc(Cc4ccc(Oc5ccccc5)cc4)c23)[C@H](O)[C@@H](O)[C@@H]1O` [Example 26, 2-[3-(4-Phenoxy-benzyl)-1H-indol-4-yloxy]-β-D-glucopyranoside] belongs 420 nM.
On the same count and under the same terms, for `CCc1ccc(Cc2cn(C(C)C)c3cccc(O[C@@H]4O[C@H](CO)[C@@H](O)[C@H](O)[C@H]4O)c23)cc1` [Example 31, 2-[3-(4-Ethyl-benzyl)-1-isopropyl-1H-indol-4-yloxy]-β-D-glucopyranoside] the value was 5110 nM.
In the case of `COc1ccc(-c2c[nH]c3cccc(O[C@@H]4O[C@H](CO)[C@@H](O)[C@H](O)[C@H]4O)c23)cc1` [Example 33, 2-[3-(4-Methoxy-phenyl)-1H-indol-4-yloxy]-β-D-glucopyranoside], the inhibition at 10 µM in assay [2] (10 μM compound, read-out: CHOK-SGLT2 % Inh. @ 10 μM) is 37%.

The term IC50 denotes the concentration that gives 50% inhibition.

The values above are taken from patent US7820630B2, “Substituted indole-O-glucosides” (Janssen Pharmaceutica NV, priority 2003, dated 2010).
